Assay results taken from US12503453B2, “USP7 inhibition” (Dana-Farber Cancer Institute, Inc., priority 2018, dated 2025).

Assays:
[1] = target: T1, USP7 (Homo sapiens (Human), UniProt Q93009); assay: Competitive ABPP with HA-Ub-VS in MCF7 crude cell extracts; format: binding; conditions: read-out: IC50 of inhibition of HA-Ub-VS labeling
Protocol: (§1) HA-Ub-VS experiments were performed as previously described in Lamberto, I. et al. Structure-Guided Development of a Potent and […] Selective Non-covalent Active-Site Inhibitor of USP7. Cell Chem. Biol. 24, 1490-1500 (2017). Briefly, target engagement lysis buffer (50 mM Tris pH 8.0, 150 mM NaCl, 5 mM MgCl2, 0.5 mM EDTA, 0.5% NP-40, 10% glycerol, 1 mM TCEP, protease and phosphatase inhibitors) was added to cell pellets on ice. Lysate was cleared by centrifugation and diluted to 1.67 mg/mL. Where indicated, 30 μL lysate was then incubated with inhibitors or DMSO for the indicated timepoints. 1 μM HA-Ub-VS was then added to the lysate and incubated at RT for the indicated time points. Labeling reactions were quenched with 4×LDS sample buffer (Thermo Fisher B0007) supplemented with 10% BME, vortexed vigorously, and heated to 95° C. for 5 minutes. Samples were resolved by SDS-PAGE and analyzed by Western blot with the indicated antibodies.

[2] = target: T1, USP7; assay: Live cell treatment and competitive ABPP with HA-Ub-VS; format: cell-based; conditions: live cell treatment, 6 hr; read-out: IC50 of USP7 inhibition in cyto
Protocol: as §1

[3] = system: MDM2-p53 signaling axis in MCF7 cells; assay: Whole cell lysate Western blots of MCF7 cells (MDM2-p53 signaling axis); format: cell-based; conditions: wild-type TP53
[4] = system: p53 target genes in MCF7 cells; assay: Quantitative real-time PCR of MCF7 cells; format: cell-based; conditions: 1 μM, 6 or 24 hours
Protocol: After cell treatment under the indicated conditions, total cellular RNA was purified using a Qiagen RNEasy kit. 1 μg of RNA was then converted to cDNA using SuperScript III First-Strand Synthesis (Invitrogen). cDNA from each sample was then combined with the indicated TaqMan probe and 2× MasterMix in a 96-well Fast RT-PCR plate (Invitrogen). qPCR was performed on an Invitrogen 7500 Fast qPCR instrument and gene expression was calculated using the 2^−ΔΔct method on Graphpad Prism.

[5] = target: USP7-F291N (Homo sapiens (Human), UniProt Q93009, F291N); assay: Ub-AMC assay with mutant USP7-F291N; format: biochemical; conditions: 6-hr pre-incubation
USP7-F291N, sequence (Q93009 whole entry F291N): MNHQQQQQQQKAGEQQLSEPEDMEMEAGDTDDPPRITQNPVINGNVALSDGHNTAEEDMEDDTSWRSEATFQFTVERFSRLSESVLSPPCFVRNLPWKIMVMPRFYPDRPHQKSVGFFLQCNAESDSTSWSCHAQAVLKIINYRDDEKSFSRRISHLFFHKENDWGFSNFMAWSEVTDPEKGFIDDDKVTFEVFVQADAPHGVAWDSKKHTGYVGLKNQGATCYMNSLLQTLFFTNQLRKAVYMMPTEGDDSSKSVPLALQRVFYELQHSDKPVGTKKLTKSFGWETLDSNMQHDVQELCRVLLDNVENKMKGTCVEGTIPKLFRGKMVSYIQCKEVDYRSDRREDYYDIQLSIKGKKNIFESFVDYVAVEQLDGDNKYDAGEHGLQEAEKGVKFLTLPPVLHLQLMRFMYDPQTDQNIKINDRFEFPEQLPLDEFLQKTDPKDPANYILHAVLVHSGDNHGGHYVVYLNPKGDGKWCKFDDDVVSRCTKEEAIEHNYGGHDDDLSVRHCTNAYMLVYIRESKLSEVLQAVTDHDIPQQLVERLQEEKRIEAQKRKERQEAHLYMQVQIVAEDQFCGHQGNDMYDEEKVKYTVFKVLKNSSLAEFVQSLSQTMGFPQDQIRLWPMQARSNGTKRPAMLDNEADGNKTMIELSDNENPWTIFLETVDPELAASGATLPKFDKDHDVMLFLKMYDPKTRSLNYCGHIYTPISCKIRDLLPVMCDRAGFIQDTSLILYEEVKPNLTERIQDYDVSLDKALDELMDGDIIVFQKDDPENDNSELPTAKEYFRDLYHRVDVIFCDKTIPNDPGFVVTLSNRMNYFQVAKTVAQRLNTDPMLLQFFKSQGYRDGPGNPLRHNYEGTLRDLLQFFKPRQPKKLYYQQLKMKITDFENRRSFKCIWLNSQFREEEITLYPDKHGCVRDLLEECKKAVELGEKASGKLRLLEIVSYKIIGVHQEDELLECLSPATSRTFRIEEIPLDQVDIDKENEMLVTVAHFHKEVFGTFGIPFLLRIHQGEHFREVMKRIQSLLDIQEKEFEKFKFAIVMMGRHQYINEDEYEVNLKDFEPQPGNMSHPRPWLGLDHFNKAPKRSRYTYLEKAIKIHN
Protocol: (§2) Full length USP7 was tested for its activity in Ubiquitin-AMC assay in presence or absence of inhibitors. USP7 (5 nM) was pre-incubated for 6 hours at room temperature with different concentrations of inhibitors or DMSO as a control in 50 mM HEPES pH 7.5, 0.5 mM EDTA, 11 μM ovalbumin, and 5 mM DTT. Ubiquitin-AMC (Boston Biochem) was then added to a final concentration of 500 nM. The initial rate of the reaction was measured by collecting fluorescence data at one minute intervals over 30-minute period using a Clariostar fluorescence plate reader at excitation and emission wavelength of 345 and 445 nm respectively. The calculated initial rate values were plotted against inhibitor concentrations to determine IC50s. All the experimental data were plotted using Prism GraphPad. All assays for each compound were performed at least twice for each compound.

[6] = target: USP7-Q351S (Homo sapiens (Human), UniProt Q93009, Q351S); assay: Ub-AMC assay with mutant USP7-Q351S; format: biochemical; conditions: 6-hr pre-incubation
USP7-Q351S, sequence (Q93009 whole entry Q351S): as the sequence (Q93009 whole entry F291N) above, with N291F, Q351S counted along it
Protocol: as §2

[7] = system: 41 purified recombinant DUBs; assay: In vitro DUB profiling, panel of 41 recombinant DUBs (Ub-Rho); format: biochemical; conditions: 1 μM, 15 minutes pre-incubation
Protocol: Compounds were screened using the Ubiquigent Drug Profiler SPT system. Each of 41 purified DUBs was incubated with compound for 15 minutes, then ubiquitin rhodamine 110 (Ub-Rho) was added and percent inhibition determined based on fluorescence relative to a DMSO control.

[8] = system: TC71 cells; assay: Cell proliferation (CellTiter-Glo), TC71; format: cell-based; conditions: TP53-mutant, 3 days
Protocol: Cells were plated in 384-well culture-treated plates and allowed to settle overnight. After drug treatment and appropriate incubation time, cell viability was assessed using the CellTiter-Glo Luminescent Cell Viability Assay (Promega). Luminescence was read on a Fluostar Omega Reader (BMG Labtech).

[9] = system: MCF7 cells; assay: Transcriptome profiling, 3' Digital Gene Expression RNA-seq; format: cell-based; conditions: 24 hours, low or high doses
From the text: Overall, transcripts were detected for 7000-10,000 genes (7276 genes detected across all conditions).
The same report had also identified a set of dimerization partner, Retinoblastoma-like, E2F and multi-vulval class B (DREAM) complex target genes by combining p53 repression data (generated in part with Nutlin-3A-treated MCF7 cells) with cell cycle expression and DREAM component binding.

T1 sequence (Q93009 whole entry): as the sequence (Q93009 whole entry F291N) above, with N291F counted along it

IC50 ([1]; 30 min preincubation): 85 nM | IC50 ([1]; 4 hr preincubation): 8 nM | IC50 [2]: 39 nM | loss in potency compared to wild-type enzyme [5]: 100 fold | loss in potency compared to wild-type enzyme [6]: 100 fold
Structure (SMILES): CN1CCN(CCC(=O)Nc2ccc3c(=O)n(CC4(O)CCN(C(=O)[C@@H](CCCNC(=O)c5ccc6c(Cl)c7c(nc6c5)CCCC7)Cc5ccccc5)CC4)cnc3c2)CC1 [compound 6, (S)—N-(4-benzyl-5-(4-hydroxy-4-((7-(3-(4-methylpiperazin-1-yl)propanamido)-4-oxoquinazolin-3(4H)-yl)methyl)piperidin-1-yl)-5-oxopentyl)-9-chloro-5,6,7,8-tetrahydroacridine-3-carboxamide]
MDM2 protein level [3]: induced rapid degradation of MDM2 within 2 hours | p53 and p21 protein levels [3]: increases in p53 and downstream p21 protein levels | transcription of p53 target genes (CDKN1A, GADD45A, BAX, DDB2) [4]: stimulating transcription of p53 target genes | activity against other DUBs of the panel [7]: did not exhibit significant activity against any other DUBs | inhibition of USP7 enzymatic activity [7]: completely inhibited USP7 enzymatic activity | growth inhibition [8]: neither TP53-mutant A673 or TC71 was substantially inhibited | transcriptional profile [9]: strongly correlated transcriptional profiles
